Experimental data published in US5270310A, “N-aminoalkyl amide inhibitors of protein kinase C” (Sphinx Pharmaceuticals Corporation, priority 1991, dated 1993).

What was measured:
[1] = system: MCF-7/ADR adriamycin resistant line of MCF-7 cells; test: Human Tumor Cell Growth Inhibition, MCF-7/ADR; assay type: cell-based; conditions: NCI/ADR-RES, 3H-thymidine incorporation, value without parentheses (not salt)
Description: MCF-7 a human breast tumor cell line and MCF-7/ADR an adriamycin resistant line of MCF-7 cells were obtained from the National Cancer Institute, Frederick, Md. CEM cells (ATCC accession number CCL 119) were obtained from the American Type Culture Collection, Rockville, Md. Human tumor cells are trypsinized (0.05% trypsin, GIBCO), counted with a hemacytometer and seeded at a concentration of 10,000 cells/well in a 96 well microtiter plate. After allowing cells to attach to the surface overnight, the culture medium is aspirated and replaced with 100 μl of fresh medium. Test agents are diluted to determine dose response at 2× final concentration and added in quadruplicate at 100 μl/well to bring the total volume of each well to 200 μl. The microtiter plate is then incubated at 37° C. 5% CO2 overnight (18-24 hrs) before ^3 H-thymidine is added at a concentration of 0.5 μCi/well in 50 μl culture medium. The plate is incubated again for 4 hrs under the same conditions as above. Supernatant is then aspirated and 50 μl trypsin (0.05%, GIBCO) is added to each well. Cells are checked microscopically to determine detachment from surfaces, and plates are then harvested with a cell harvester (PHD, Cambridge Technology, Inc.) Filter papers corresponding to wells are placed in scintillation vials and counted to determine the amount of ^3 H-thymidine incorporated by the cells. […]

[2] = target: T1, protein kinase (PKA), catalytic subunit (Homo sapiens, UniProt P17612); test: cAMP-Dependent Protein Kinase (PKA) Assay; assay type: biochemical; conditions: free base
T1 construct: purchased Sigma Chemical Company, St. Louis, Mo
Experimental: Compound found to be inhibitors of protein kinase C are tested for inhibitory activity against protein kinase (PKA). This enzyme, like protein kinase C, plays an important role in cell-cell communication and is activated by a second messenger, cAMP. Secondary screening against PKA is useful for ascertaining the selectivity of the compounds of the invention. The catalytic subunit of PKA (Sigma Chemical Company, St. Louis, Mo.) is mixed with buffer before addition of the inhibitor in dimethylsulfoxide (DMSO). The assay is started by the addition of 32P-ATP and the reaction is allowed to proceed for 10 min before stopping with 25% trichloroacetic acid (TCA) and 1.0 mg/ml bovine serum albumin (BSA). The phosphorylated protein is isolated by filtration and the radioactivity is counted in a beta scintillation counter.

[3] = system: PMA-stimulated neutrophils; test: Neutrophil Superoxide Anion (O2^-) Release Assay; assay type: cell-based, human; conditions: Homo sapiens, Neutrophil; PMA-stimulated; value outside parentheses (not salt); read-out: Neutrophil Superoxide Release IC50
Experimental: Neutrophils are isolated form whole blood collected from human volunteers. All reagent materials are obtained from Sigma Chemical Company with the exception of isotonic saline (Travenol Laboratories, Inc., Deerfield, Ill.) and lymphocyte separation medium (Organon Teknika, Durham, N.C.).
Whole blood is drawn and mixed with sodium heparin (final conc. 10 units/ml) to prevent clotting. An equal volume of dextran (3.0%) in isotonic saline is added, mixed, and allowed to settle for 30 min to bind red blood cells (RBC). Supernatant is removed, underlayered with lymphocyte separation medium and centrifuged for 40 min at 400 xg in a centrifuge (Beckman GPR, Norcross, Ga). The pellet is alternately resuspended in 0.2% and 1.6% NaCl to lyse RBCs before washing with Hank's Balanced Salt Solution (HBSS). The washed pellet is resuspended in 10 mL HBSS and placed on ice before counting on a hemacytometer.
The neutrophil cell concentration is adjusted to 2×10^6 cells/ml with HBSS before adding 0.8 mL cells to 12×75 mm polypropylene test tubes (Fisher Scientific). Test agents are diluted to determine dose response and added at 10× final concentration at a volume of 0.1 mL/tube in duplicate. Then 10× concentrations of cytochrome C (15 mg/ml) with catalase (3000 units/ml) either alone or containing 25 ng/ml phorbol 12-myristate 13-acetate (PMA) are added at a volume of 0.1 mL/tube and incubated at 37° C. for 30 min before stopping the reaction by placing tubes on ice. Tubes are then centrifuged at 900 xg for 10 min, 0.5 mL supernatant is removed and added to 0.5 mL H2 O in a microcuvette. Optical density (OD) of cytochrome c is read in a spectrophotometer (Shimadzu) at 550 nm. The ΔOD of cytochrome c is obtained between PMA-stimulated and non-stimulated tubes, and the dose responses of the test agents are compared to the positive controls (which contain HBSS in place of test agents). PMA stimulates O2^- production which reduces cytochrome c. Reducing cytochrome c increases its absorbance, and the change in OD of cytochrome c is proportional to the amount of O2^- produced by PMA stimulation. Inhibition of the O2^- burst by test compounds of the invention is seen as a reduction in the change in optical density. Inhibition is expressed as IC50 μM and is the amount of test compound that will inhibit fifty percent of the PMA-stimulated respiratory outburst, i.e. O2^- production.

[4] = system: MCF-7 human breast tumor cell line; test: Human Tumor Cell Growth Inhibition, MCF-7; assay type: cell-based; conditions: Homo sapiens, MCF7; 3H-thymidine incorporation; value outside parentheses (not salt)
Experimental: MCF-7 a human breast tumor cell line and MCF-7/ADR an adriamycin resistant line of MCF-7 cells were obtained from the National Cancer Institute, Frederick, Md. […] Human tumor cells are trypsinized (0.05% trypsin, GIBCO), counted with a hemacytometer and seeded at a concentration of 10,000 cells/well in a 96 well microtiter plate. After allowing cells to attach to the surface overnight, the culture medium is aspirated and replaced with 100 μl of fresh medium. Test agents are diluted to determine dose response at 2× final concentration and added in quadruplicate at 100 μl/well to bring the total volume of each well to 200 μl. The microtiter plate is then incubated at 37° C. 5% CO2 overnight (18-24 hrs) before ^3 H-thymidine is added at a concentration of 0.5 μCi/well in 50 μl culture medium. The plate is incubated again for 4 hrs under the same conditions as above. Supernatant is then aspirated and 50 μl trypsin (0.05%, GIBCO) is added to each well. Cells are checked microscopically to determine detachment from surfaces, and plates are then harvested with a cell harvester (PHD, Cambridge Technology, Inc.) Filter papers corresponding to wells are placed in scintillation vials and counted to determine the amount of ^3 H-thymidine incorporated by the cells. Test agent response is compared to a positive control of cell wells with culture media only to determine the IC50. IC50 is the concentration of test compound required to inhibit fifty per cent of the incorporation of ^3 H-thymidine into proliferating cells not exposed to test agent. Uptake of ^3 H-thymidine is a standard test for measuring the metabolism of cells. Cells which are actively proliferating take up ^3 H-thymidine, whereas cells that are not proliferating take up ^3 H-thymidine at much slower rates or not at all. Test agents that inhibit the uptake of ^3 H-thymidine thus slow the growth of cells.

protein kinase C (PKC) = test: Protein Kinase C Inhibition; assay type: biochemical, rat
Experimental: The protein kinase C (PKC) assay is designed to duplicate the in vivo conditions required for protein kinase C function. Therefore, pH, salt and cofactor concentrations are similar to physiologic levels. Histone H1 (lysine rich) is used in the assay as the phosphorylation acceptor protein because it is readily available and serves as a good substrate for protein kinase C. The enzyme is prepared from rat brain and is purified to apparent homogeneity as determined by a single band on silver stained SDS-polyacrylamide. Studies on the mechanism of regulation of protein kinase C by phospholipids, DAG and Ca^+2 have been hampered by the physical properties of the lipid cofactors. In the screening assay, phosphatidylserine (PS) and DAG are co-sonicated to form unilamellar and multilamellar vesicles. The concentration of lipids in the assay are suboptimal to maximize the detection potential of the assay for inhibitors. […] The assay is started with the addition of enzyme and stopped after 10 min by the addition of 25% trichloroacetic acid (TCA) and 1.0 mg/ml bovine serum albumin (BSA). The radioactive histone product is retained and washed on glass fiber filters that allow the unreacted ^32 P-ATP to pass through. The amount of phosphorylation is determined by the radioactivity measured in a scintillation counter. Controls are included in every assay to measure background activity in the absence of enzyme, activity in the absence of lipids and the maximum enzyme activity with saturating levels of the activator lipids.
Both the free base and the HCl salt were tested.

[5] = system: NHEK cells (proliferating keratinocytes); test: Human Keratinocyte Inhibition; assay type: cell-based; conditions: 3H-thymidine incorporation, value outside parentheses (not salt), read-out: NHEK IC50
Experimental: Proliferating keratinocytes (NHEK cells purchased from Clonetics, Inc., San Diego, Calif.) in second passage were grown in Keratinocyte Growth Medium (KGM) (Clonetics, Inc.) Cells are trypsinized (0.025% trypsin, Clonetics), counted with a hemacytometer (Scientific Products), and seeded at a concentration of 2,500 cells/well in a 96 well microtiter plate. After allowing cells to attach to the surface overnight, the culture medium is aspirated and replaced with 100 μl of fresh KGM. […] IC50 is the concentration of test compound required to inhibit fifty percent of the incorporation of ^3 H-thymidine into proliferating cells not exposed to test agent.

CCCCCCCCCCCCCCCC(=O)NCCCN1CCCCC1C (stereo not drawn) [Compound 11, 2-Methyl-l-[3-(N-hexadecanoyl)aminopropyl]piperidine]
IC50 [1]: 2.6 µM | IC50 [2]: > 217 µM | IC50 [3]: 1.8 µM | IC50 [4]: 4.1 µM | IC50 (protein kinase C (PKC); HCl salt): 66 µM | IC50 (protein kinase C (PKC); free base): 130 µM

CCCCCCCCCCCCCCCC(=O)N(C)CCC[N+]1(C)CCOCC1 [Compound 16, 4-[N-hexadecanoyl-N-methyl-4-(3-aminopropyl)]-4-methylmorpholimium iodide]
IC50 [1]: > 25 µM | IC50 [2]: 131 µM | IC50 [4]: 19.3 µM | IC50 (protein kinase C (PKC); free base): 22 µM | IC50 [5]: 1.4 µM
